Where “and” joins values, the source holds several entries; their conditions need not be identical. Equal values may be shown once. Read-outs that look alike come from different tables or passages of the source.
Legend:
[1] = system: kaolin-induced edema of the rat's hind paw; test: Test for antiphlogistic effect against the kaolin-induced edema of the rat's hind paw; format: in vivo, rat (Chbb:THOM); conditions: for Thickness of the paw (mean): 5 h after kaolin; for Thickness of the paw (mean) / ED35: rat; for influence on acute anti-exudative (antiphlogistic) effect of non-steroidal antiphlogistics: kaolin-induced edema, simultaneous oral administration; for ED35: Rattus norvegicus, po, 5 h, kaolin edema
Description: (2) Test for antiphlogistic effect against the kaolin-induced edema of the rat's hind paw (tested substances: A, B, C and D)
The test was carried out on male Chbb:THOM-rats with a body weight between 125 and 150 gm. According to HILLEBRECHT [Arzneimittel-Forsch. 4, 607 (1954)], a subplantary injection of 0.05 ml of a 10% suspension of kaolin in an aqueous 0.85% sodium chloride solution in the hind paw was used for the provocation of the kaolin edema. The other hind paw was subplantarily injected with the same volume of an aqueous 0.85% sodium chloride solution.
The measurement of the thickness of the paws was carried out using the technique of DOEPFNER and […] [Int. Arch. Allergy appl. Immunol. 12, 89 (1958)] by way of the determination of the maximum sagittal diameter, using a measuring device with constant pressure, before and 5 hours after the provocation of the edema.
The test substances (the non-steroidal antiphlogistics or the mixture of non-steroidal antiphlogistics with pirenzepine dihydrochloride) were administered 30 minutes before provocation of the edema as a trituration in 1% tylose (1 ml/[…]) by way of an esophageal tube.
The diameter of the paw measured before the beginning of the test as well as the increase in diameter of the other paw caused by injection were subtracted from the diameter of the kaolin-treated paw, and this difference, being the real swelling value, was used for the further calculations.
(§1) From the swelling values obtained by administration of different dosages of non-steroidal antiphlogistics with or without the addition of pirenzepine dihydrochloride, using a linear regression analysis according to LINDNER [Statistische Methoden, 4th Ed., pages 148-162, Birkhauser, Basel, Switzerland (1964)], the ED35 values of the antiphlogistics were calculated with the confidence limits according to FIELLER [Quart. J. Pharm. Pharmacol. 17, 117 (1944)], the ED35 being the dosage which reduces the swelling of the paws by 35% in comparison to the control animals.

[2] = system: carrageenin-induced edema of the hind paw of the rat; test: Test for antiphlogistic effect against the carrageenin-induced edema of the hind paw of the rat; format: in vivo; conditions: for Thickness of the paw (mean): oral, 3 h after carrageenin; for Thickness of the paw (mean) / ED35: rat; for influence on acute anti-exudative (antiphlogistic) effect of non-steroidal antiphlogistics: carrageenin-induced edema, simultaneous oral administration; for ED35: Rattus norvegicus, po, 3 h, carrageenin edema
Description: The test was carried out in analogy to the above test for the kaolin-induced edema. However, the edema was induced according to the method of WINTER et al. [J. Pharmacol. 141, 369 (1963)] by subplantary injection of 0.05 ml of a 1% solution of carrageenin in an aqueous 0.85% solution of sodium chloride. […] Three hours after the provocation of the edema the measurement which provided the basis for the evaluation of an anti-exudative effect was carried out.
as §1

[3] = system: ulcer; format: in vivo; conditions: several hundred cases, two years
[4] = system: stomach of the rat; test: Test for ulcerogenic effect on the stomach of the rat; format: in vivo, rat (Chbb:THOM); conditions: oral, 3 subsequent days
Description: (§2) (1) Test for ulcerogenic effect on the stomach of the rat
(§3) The test was carried out on male and female (1:1) Chbb:THOM-rats with a body weight between 130 to 150 gm at the beginning of the study.
(§4) The test substances (non-steroidal anti-phlogistics or mixtures of these antiphlogistics with pirenzepine dihydrochloride) were administered as triturations in 1% tylose (1 ml/100 gm animal) by way of an esophageal tube once a day on three successive days.
(§5) Four hours after the last administration (i.e. on the 3rd day) the animals were killed by an over-dose of ether. The stomachs wer dissected, cut along the great curvature and washed under flowing water for subsequent macroscopic evaluation.

[5] = as above; format: in vivo, rat (Chbb:THOM); conditions: in vivo, po
Description: as §2, §3, §4, §5

[6] = system: gastro-intestinal tract; conditions: cited from earlier work
[7] = listed as pirenzepine dihydrochloride, dihydrochloride
[8] = clinical, depending upon experience, patients and compound primarily used
[9] = antiphlogistic 50 mgm/kg, without A
[10] = antiphlogistic 50 mgm/kg + A 400 mgm/kg
[11] = antiphlogistic 100 mgm/kg + A 400 mgm/kg
[12] = antiphlogistic 100 mgm/kg, without A
[13] = antiphlogistic 200 mgm/kg, without A

SMILES: CN1CCN(CC(=O)N2c3ccccc3C(=O)Nc3cccnc32)CC1.Cl.Cl [A, 5,11-dihydro-11-[(4-methyl-1-piperazinyl)-acetyl]-6H-pyrido[2,3-b] [1,4] benzodiazepin-6-one dihydrochloride]
- Thickness of the paw (mean) ([1]; Controls with A 100 mgm/kg, no antiphlogistic, oral, dihydrochloride): 277.5 10^-2 mm and 276.3 10^-2 mm and 278.0 10^-2 mm
- influence on acute anti-exudative (antiphlogistic) effect of non-steroidal antiphlogistics ([1]; dihydrochloride): not reduced
- influence on acute anti-exudative (antiphlogistic) effect of non-steroidal antiphlogistics [1, 7]: does not lead to a reduction of the acute anti-exudative effect
- Thickness of the paw (mean) ([2]; Controls with A 400 mgm/kg, no antiphlogistic, dihydrochloride): 272.0 10^-2 mm and 271.0 10^-2 mm
- influence on acute anti-exudative (antiphlogistic) effect of non-steroidal antiphlogistics ([2]; dihydrochloride): not reduced
- influence on acute anti-exudative (antiphlogistic) effect of non-steroidal antiphlogistics [2, 7]: does not lead to a reduction of the acute anti-exudative effect
- ulcer rate ([3]; pirenzepine dihydrochloride together with indomethacin): ~0%

SMILES: COc1ccc2c(c1)c(CC(=O)O)c(C)n2C(=O)c1ccc(Cl)cc1 [B, 1-(4-chloro-benzoyl)-5-methoxy-2-methyl-1H-indole-3-aceticacid]
- ED35 ([1]; with A 100 mgm/kg): 3 mg/kg
- ED35 ([1]; without A): 4.3 mg/kg
- Thickness of the paw (mean) ([1]; antiphlogistic 1.5 mgm/kg + A 100 mgm/kg, oral): 200.3 10^-2 mm
- Thickness of the paw (mean) ([1]; antiphlogistic 1.5 mgm/kg, without A, oral): 214.8 10^-2 mm
- Thickness of the paw (mean) ([1]; antiphlogistic 3.0 mgm/kg + A 100 mgm/kg, oral): 178.3 10^-2 mm
- Thickness of the paw (mean) ([1]; antiphlogistic 3.0 mgm/kg, without A, oral): 189.0 10^-2 mm
- Thickness of the paw (mean) ([1]; antiphlogistic 6.0 mgm/kg + A 100 mgm/kg, oral): 162.9 10^-2 mm
- Thickness of the paw (mean) ([1]; antiphlogistic 6.0 mgm/kg, without A, oral): 164.5 10^-2 mm
- Ratio of animals with ulcers ([4]; antiphlogistic 2 mgm/kg, without A): 4/18
- Ratio of animals with ulcers ([4]; antiphlogistic 2.8 mgm/kg + A 50 mgm/kg): 4/16
- Ratio of animals with ulcers ([4]; antiphlogistic 2.8 mgm/kg + A 100 mgm/kg): 4/16
- Ratio of animals with ulcers ([4]; antiphlogistic 2.8 mgm/kg, without A): 11/18
- Ratio of animals with ulcers ([4]; antiphlogistic 4.0 mgm/kg + A 50 mgm/kg): 12/16
- Ratio of animals with ulcers ([4]; antiphlogistic 4.0 mgm/kg + A 100 mgm/kg): 5/15
- Ratio of animals with ulcers ([4]; antiphlogistic 4 mgm/kg, without A): 16/18
- Ratio of animals with ulcers ([4]; antiphlogistic 5.66 mgm/kg + A 50 mgm/kg): 13/15
- Ratio of animals with ulcers ([4]; antiphlogistic 5.66 mgm/kg + A 100 mgm/kg): 8/15
- Ratio of animals with ulcers ([4]; antiphlogistic 8.0 mgm/kg + A 100 mgm/kg): 15/15
- TD50 ([5]; with A 50 mgm/kg, oral, 3 subsequent days, read-out: ED50-ulcer): 3.3 mg/kg
- TD50 ([5]; with A 100 mgm/kg, oral, 3 subsequent days, read-out: ED50-ulcer): 4.9 mg/kg
- TD50 ([5]; without A, oral, 3 subsequent days, read-out: ED50-ulcer): 2.55 mg/kg
- ulcer rate ([3]; without pirenzepine dihydrochloride): 37%
- gastro-intestinal incompatabilities encountered, share of all cases [6, 8]: 25-37%

SMILES: OCCCCc1ccc(-c2ccccc2)cc1 [D, 4-(4-biphenylyl)-butanol]
- ED35 ([1]; with A 100 mgm/kg, oral, read-out: ED35): 12.1 mg/kg
- ED35 ([1]; without A, oral, read-out: ED35): 11.2 mg/kg
- Thickness of the paw (mean) ([1]; antiphlogistic 6.25 mgm/kg + A 100 mgm/kg, oral): 215.5 10^-2 mm
- Thickness of the paw (mean) ([1]; antiphlogistic 6.25 mgm/kg, without A, oral): 214.3 10^-2 mm
- Thickness of the paw (mean) ([1]; antiphlogistic 12 mgm/kg + A 100 mgm/kg, oral): 180.4 10^-2 mm
- Thickness of the paw (mean) ([1]; antiphlogistic 12 mgm/kg, without A, oral): 165.0 10^-2 mm
- Thickness of the paw (mean) ([1]; antiphlogistic 25 mgm/kg + A 100 mgm/kg, oral): 141.0 10^-2 mm
- Thickness of the paw (mean) ([1]; antiphlogistic 25 mgm/kg, without A, oral): 124.0 10^-2 mm
- Ratio of animals with ulcers ([4]; antiphlogistic 28.1 mgm/kg, without A): 4/17
- Ratio of animals with ulcers ([4]; antiphlogistic 37.5 mgm/kg, without A): 5/17
- Ratio of animals with ulcers ([4]; antiphlogistic 50.0 mgm/kg + A 50 mgm/kg): 1/16
- Ratio of animals with ulcers ([4]; antiphlogistic 50 mgm/kg + A 100 mgm/kg): 2/16
- Ratio of animals with ulcers [4, 9]: 9/17
- Ratio of animals with ulcers ([4]; antiphlogistic 67.5 mgm/kg + A 50 mgm/kg): 6/16
- Ratio of animals with ulcers ([4]; antiphlogistic 67.5 mgm/kg + A 100 mgm/kg): 5/15
- Ratio of animals with ulcers ([4]; antiphlogistic 67.5 mgm/kg, without A): 15/17
- Ratio of animals with ulcers ([4]; antiphlogistic 91.1 mgm/kg + A 50 mgm/kg): 11/14
- Ratio of animals with ulcers ([4]; antiphlogistic 91.1 mgm/kg + A 100 mgm/kg): 7/15
- Ratio of animals with ulcers ([4]; antiphlogistic 123.0 mgm/kg + A 50 mgm/kg): 13/14
- Ratio of animals with ulcers ([4]; antiphlogistic 123.0 mgm/kg + A 100 mgm/kg): 10/13
- TD50 ([5]; ED50-ulcer): 44.5 mg/kg

SMILES: CCCCC1C(=O)N(c2ccccc2)N(c2ccccc2)C1=O [G, 4-butyl-1,2-diphenyl-3,5-pyrazolidinedione]
- Ratio of animals with ulcers ([4]; antiphlogistic 50 mgm/kg + A 200 mgm/kg): 2/20
- Ratio of animals with ulcers [4, 10]: 0/20
- Ratio of animals with ulcers [4, 9]: 4/20
- Ratio of animals with ulcers ([4]; antiphlogistic 71 mgm/kg + A 200 mgm/kg): 8/20
- Ratio of animals with ulcers ([4]; antiphlogistic 71 mgm/kg + A 400 mgm/kg): 0/20
- Ratio of animals with ulcers ([4]; antiphlogistic 100 mgm/kg + A 200 mgm/kg): 15/20
- Ratio of animals with ulcers [4, 11]: 6/20
- Ratio of animals with ulcers [4, 12]: 14/20
- Ratio of animals with ulcers ([4]; antiphlogistic 200 mgm/kg + A 200 mgm/kg): 20/20
- Ratio of animals with ulcers ([4]; antiphlogistic 200 mgm/kg + A 400 mgm/kg): 14/20
- Ratio of animals with ulcers [4, 13]: 20/20
- Ratio of animals with ulcers ([4]; antiphlogistic 400 mgm/kg + A 400 mgm/kg): 18/19
- TD50 ([5]; ED50-ulcer): 69 mg/kg
- ED35 ([2]; with A 400 mgm/kg): 45.7 mg/kg
- ED35 ([2]; without A): 51.7 mg/kg
- Thickness of the paw (mean) ([2]; antiphlogistic 25 mgm/kg + A 400 mgm/kg): 205.0 10^-2 mm
- Thickness of the paw (mean) ([2]; antiphlogistic 25 mgm/kg, without A): 216.8 10^-2 mm
- Thickness of the paw (mean) [2, 10]: 173.5 10^-2 mm
- Thickness of the paw (mean) [2, 9]: 175.8 10^-2 mm
- Thickness of the paw (mean) [2, 11]: 138.9 10^-2 mm
- Thickness of the paw (mean) [2, 12]: 153.8 10^-2 mm
- Thickness of the paw (mean) [2, 13]: 125.0 10^-2 mm
- gastro-intestinal incompatabilities encountered, share of all cases ([6]; human, in vivo): 25-37%

SMILES: CCCC1C(=O)N2C(N(C)C)=Nc3ccc(C)cc3N2C1=O (stereo not drawn) [azapropazone, 5-dimethylamino-9-methyl-2-propyl-1H-pyrazolo[1,2-a][1,2,4]benzotriazine-1,3(2H)-dione]
- gastro-intestinal incompatabilities encountered, share of all cases [6, 8]: 25-37%

From US4292319A, “Antiphlogistic pharmaceutical compositions and method of use” (Boehringer Ingelheim GmbH, priority 1977, dated 1981)
